The values that follow come from publication PMC9343605, “Structural insights into ligand recognition and selectivity of somatostatin receptors” (Cell Research, 2022).

In test [1] the target is T1, SSTR4 (Homo sapiens, UniProt P31391, M130A). In words: Whole cell binding assay, SSTR4, competition with 125I-Tyr11-SST14, CHO-K1. The note with it: SSTR4 mutant M130^3.36A; mean ± SEM. Details: expressed in transfected cells.
Description: (§2) For SSTR2 and SSTR4, CHO-K1 cells were cultured in F12 medium with 10% FBS and seeded at a density of 30,000 cells/well in Isoplate-96 plates (PerkinElmer). Twenty-four hours after transfection with the WT or mutant SSTR2/SSTR4, CHO-K1 cells were washed twice and incubated with blocking buffer (F12 supplemented with 25 mM HEPES and 0.1% (w/v) BSA, pH 7.4) for 2 h at 37 °C. […] Following incubation, cells were washed three times with ice-cold PBS and lysed by 50 μL lysis buffer (PBS supplemented with 20 mM Tris-HCl, 1% Triton X-100, pH 7.4). The radioactivity was subsequently counted (counts/min, CPM) in a scintillation counter (MicroBeta[2] Plate Counter, PerkinElmer) using a scintillation cocktail (OptiPhaseSuperMix, PerkinElmer). Data were analyzed by nonlinear regression using GraphPad PRISM 8.
(§3) aMutants represent that all mutations were introduced separately into the WT receptors
and expressed in CHO K1 cells.
(§4) bThe IC50 ratio was shown as IC50(mutant)/IC50(WT), indicating the shift between the WT
(§5) and mutant curves, reflecting the effect of the mutations on ligand binding.
(§6) cData are shown as mean ± S.E.M. form at least three independent experiments
(§7) performed in technical triplicate. One-way ANOVA was performed followed by
(§8) Dunnett’s post-test and compared with WT.
(§9) d The span is defined as the window between the maximal agonists response (Emax) and
(§10) e Sample size; the number of independent experiments performed in technical triplicate.
Test [2] concerns the target T2, SSTR4 (Homo sapiens, UniProt P31391). The description is as above. The arrangement: expressed in transfected cells. The note with it: WT SSTR4, mean ± SEM.
Description: as §2, §3
and expressed in CHO K1 cells.
as §4, §5, §6, §7, §8, §9, §10
Test [3] has as its target T3, SSTR4 (Homo sapiens, UniProt P31391, D126A). The description is as above. Details: expressed in transfected cells. The following applies: SSTR4 mutant D126^3.32A; mean ± SEM.
Description: as §2, §3
and expressed in CHO K1 cells.
as §4, §5, §6, §7, §8, §9, §10
The target in test [4] is T4, SSTR4 (Homo sapiens, UniProt P31391, F275A). The test is described as above. The note with it: SSTR4 mutant F275^6.51A; mean ± SEM. The arrangement: expressed in transfected cells.
T4 sequence (P31391 whole entry F275A): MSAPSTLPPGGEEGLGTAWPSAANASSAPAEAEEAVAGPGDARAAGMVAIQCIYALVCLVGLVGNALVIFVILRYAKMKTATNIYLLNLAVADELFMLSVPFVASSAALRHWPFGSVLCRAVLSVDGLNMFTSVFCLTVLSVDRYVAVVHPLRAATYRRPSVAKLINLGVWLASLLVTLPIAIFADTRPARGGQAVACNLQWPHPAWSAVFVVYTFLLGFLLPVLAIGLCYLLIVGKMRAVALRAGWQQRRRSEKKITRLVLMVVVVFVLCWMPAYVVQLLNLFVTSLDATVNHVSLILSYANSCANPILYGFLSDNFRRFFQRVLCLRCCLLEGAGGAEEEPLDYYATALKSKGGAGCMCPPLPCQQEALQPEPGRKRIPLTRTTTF
Description: as §2, §3
and expressed in CHO K1 cells.
as §4, §5, §6, §7, §8, §9, §10
Test [5] deals with T5, SSTR4 (Homo sapiens, UniProt P31391, Q279A). The test is described as above. Details: expressed in transfected cells. The note with it: SSTR4 mutant Q279^6.55A; mean ± SEM.
T5 sequence (P31391 whole entry Q279A): as the sequence (P31391 whole entry F275A) above, with A275F, Q279A counted along it
Description: as §2, §3
and expressed in CHO K1 cells.
as §4, §5, §6, §7, §8, §9, §10
In test [6] the target is T6, SSTR4 (Homo sapiens, UniProt P31391, Y276A). The description is as above. The arrangement: expressed in transfected cells. The note with it: SSTR4 mutant Y276^6.52A; mean ± SEM.
T6 sequence (P31391 whole entry Y276A): as the sequence (P31391 whole entry F275A) above, with A275F, Y276A counted along it
Description: as §2, §3
and expressed in CHO K1 cells.
as §4, §5, §6, §7, §8, §9, §10
Test [7] deals with T7, SSTR4 (Homo sapiens, UniProt P31391, V264F). Described as above. The following applies: Construct 4 SSTR4, mean ± SEM. The arrangement: expressed in transfected cells.
T7 sequence (P31391 1-328 V264F): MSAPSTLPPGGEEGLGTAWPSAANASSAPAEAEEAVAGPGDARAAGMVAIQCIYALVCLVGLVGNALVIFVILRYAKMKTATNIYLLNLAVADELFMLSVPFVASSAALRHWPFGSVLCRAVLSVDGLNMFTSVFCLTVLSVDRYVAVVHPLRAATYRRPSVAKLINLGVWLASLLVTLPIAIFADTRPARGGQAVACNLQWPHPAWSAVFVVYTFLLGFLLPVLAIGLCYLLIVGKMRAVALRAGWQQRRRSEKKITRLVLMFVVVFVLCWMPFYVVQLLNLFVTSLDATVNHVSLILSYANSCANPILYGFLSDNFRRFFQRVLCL
Description: as §2, §3
and expressed in CHO K1 cells.
as §4, §5, §6, §7, §8, §9, §10
The target in test [8] is T8, SSTR4 (Homo sapiens, UniProt P31391, Y301A). The description is as above. Details: expressed in transfected cells. The note with it: SSTR4 mutant Y301^7.43A; mean ± SEM.
T8 sequence (P31391 whole entry Y301A): as the sequence (P31391 whole entry F275A) above, with A275F, Y301A counted along it
Description: as §2, §3
and expressed in CHO K1 cells.
as §4, §5, §6, §7, §8, §9, §10
For test [9], the target named is T9, SSTR4 (Homo sapiens, UniProt P31391, N199A). The description is as above. Details: expressed in transfected cells. The note with it: SSTR4 mutant N199^ECL2A; mean ± SEM.
T9 sequence (P31391 whole entry N199A): as the sequence (P31391 whole entry F275A) above, with N199A, A275F counted along it
Description: as §2, §3
and expressed in CHO K1 cells.
as §4, §5, §6, §7, §8, §9, §10
The target of test [10] is T10, SSTR4 (Homo sapiens, UniProt P31391, T215A). The test is described as above. The following applies: SSTR4 mutant T215^5.42A; mean ± SEM. Details: expressed in transfected cells.
T10 sequence (P31391 whole entry T215A): as the sequence (P31391 whole entry F275A) above, with T215A, A275F counted along it
Description: as §2, §3
and expressed in CHO K1 cells.
as §4, §5, §6, §7, §8, §9, §10
Test [11] concerns the target T1, SSTR4. In words: cAMP accumulation assay (agonist-induced inhibition of forskolin-stimulated cAMP), SSTR4, HEK293F.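 Note: transiently transfected cells incubated 40 min at room temperature with 4 µM forskolin and graded ligand, cAMP read by LANCE Ultra TR-FRET kit, values normalized to WT receptor per ligand.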 The note with it: SSTR4 mutant M130^3.36A; mean ± SEM. The format is cell-based. Details: expressed in transfected cells; host or cells: HEK293F.
Description: (§11) HEK293F cells were transiently transfected with WT or mutant SSTR2/SSTR4 using transfection reagent (PEI MAX 2000, Polysciences) and incubated at 37 °C in 5% CO2. Forty-eight hours after transfection, cells were centrifuged and resuspended in stimulation buffer (Hanks’ balanced salt solution (HBSS) supplemented with 5 mM HEPES, 0.5 mM IBMX and 0.1% (w/v) bovine serum albumin (BSA), pH 7.4) to a density of 200,000 cells/mL and added to 384-well white plates (PerkinElmer, 1000 cells/well). cAMP accumulation was measured by a LANCE Ultra cAMP kit (PerkinElmer) according to the manufacturer’s instructions. In brief, transfected cells were incubated for 40 min in stimulation buffer with 2.5 μL forskolin (SSTR2: 2 μM; SSTR4: 4 μM) and gradient concentration of ligand at RT. The reactions were stopped by addition of lysis buffer containing 5 μL Eu-cAMP tracer and 5 μL ULight-anti-cAMP. Plates were then incubated for 60 min at RT and time-resolved FRET signals were measured at 620 nm and 665 nm by an EnVision multilabel plate reader (PerkinElmer). Data were analyzed in GraphPad PRISM 8 and all values were normalized to the WT for each ligand. All outcomes were repeated at least three times.
(§12) aMutants represent that mutations were introduced separately into the WT receptors and
(§13) transiently expressed in HEK 293F cells.
(§14) bThe EC50 ratio was shown as EC50(mutant)/EC50(WT), indicating the shift between the WT
(§15) and mutant curves, reflecting the effect of the mutations on receptor signaling.
(§16) cData are shown as mean ± S.E.M. from at least three independent experiments
as §7
(§17) Dunnett’s post-test and compared with WT. The P value was defined as: *P<0.05;
as §9, §10
(§18) f Receptor expression level of HEK 293F cells was determined independently by flow
(§19) cytometry with anti-FLAG antibody and shown as per cent compared to the WT.
In test [12] the target is T2, SSTR4. Described as above. The following applies: WT SSTR4, mean ± SEM. Details: expressed in transfected cells; host or cells: HEK293F. The format is cell-based.
Description: as §11, §12, §13, §14, §15, §16, §7, §17, §9, §10, §18, §19
Test [13] deals with T3, SSTR4. The description is as above. Format: cell-based. Details: expressed in transfected cells; host or cells: HEK293F. The note with it: SSTR4 mutant D126^3.32A; mean ± SEM.
Description: as §11, §12, §13, §14, §15, §16, §7, §17, §9, §10, §18, §19
For test [14], the target named is T4, SSTR4. The test is described as above. The note with it: SSTR4 mutant F275^6.51A; mean ± SEM. Format: cell-based. The arrangement: expressed in transfected cells; host or cells: HEK293F.
Description: as §11, §12, §13, §14, §15, §16, §7, §17, §9, §10, §18, §19
Test [15] concerns the target T5, SSTR4. The description is as above. The format is cell-based. Details: expressed in transfected cells; host or cells: HEK293F. The note with it: SSTR4 mutant Q279^6.55A; mean ± SEM.
Description: as §11, §12, §13, §14, §15, §16, §7, §17, §9, §10, §18, §19
For test [16], the target named is T6, SSTR4. The test is described as above. The following applies: SSTR4 mutant Y276^6.52A; mean ± SEM. The format is cell-based. The arrangement: expressed in transfected cells; host or cells: HEK293F.
Description: as §11, §12, §13, §14, §15, §16, §7, §17, §9, §10, §18, §19
Test [17] addresses T7, SSTR4. The description is as above. The format is cell-based. The arrangement: expressed in transfected cells; host or cells: HEK293F.
Description: as §11, §12, §13, §14, §15, §16, §7, §17, §9, §10, §18, §19
The target in test [18] is T8, SSTR4. The test is described as above. The format is cell-based. Details: expressed in transfected cells; host or cells: HEK293F. The note with it: SSTR4 mutant Y301^7.43A; mean ± SEM.
Description: as §11, §12, §13, §14, §15, §16, §7, §17, §9, §10, §18, §19
Test [19] has as its target T9, SSTR4. The description is as above. Details: expressed in transfected cells; host or cells: HEK293F. The format is cell-based. The note with it: SSTR4 mutant N199^ECL2A; mean ± SEM.
Description: as §11, §12, §13, §14, §15, §16, §7, §17, §9, §10, §18, §19
The target in test [20] is T10, SSTR4. Described as above. The note with it: SSTR4 mutant T215^5.42A; mean ± SEM. The arrangement: expressed in transfected cells; host or cells: HEK293F. The format is cell-based.
Description: as §11, §12, §13, §14, §15, §16, §7, §17, §9, §10, §18, §19
The subject of test [21] is SSTR4. The note with it: SSTR4 selective agonist; cited from earlier work. An excerpt: (§1) Along with increased knowledge of the pharmacological effects of these receptors, medical application of SST and its analogs has expanded. A considerable amount of effort has been made to develop new therapeutics for oncology of SSTRs. […] It was found recently that radiolabeled SSTR antagonists produced superi ...

The test system of test [22] is growth hormone and glucagon releases. The following applies: full agonist; cited from earlier work.
Description: as §1

T2 sequence (P31391 whole entry): as the sequence (P31391 whole entry F275A) above, with A275F counted along it
T1 sequence (P31391 whole entry M130A): as the sequence (P31391 whole entry F275A) above, with M130A, A275F counted along it
T3 sequence (P31391 whole entry D126A): as the sequence (P31391 whole entry F275A) above, with D126A, A275F counted along it

In the case of `Cc1ccc(S(=O)(=O)N[C@@H](CCN)C(=O)N[C@@H](Cc2ccccc2)C(N)=O)c2ccccc12` [J-2156], the Span in test [1] is reported as 12±4 % of WT; in test [2], 100±6 % of WT; in test [3], 12±3 % of WT; in test [4] it was 11 ± 4 % of WT; in [5], 26±4 % of WT; in [6], 9±3 % of WT. The Span in test [7] is listed as 96±9 % of WT; in [8], 15±5 % of WT; in test [9] it was 13±3 % of WT; in test [10], 67±4 % of WT; in [11] it was 78±6 % of WT; in [12] (window between Emax and vehicle), 100±3 % of WT. Further, the Span in [13] was 23±28 % of WT; in test [14] it was 22±7 % of WT; in [15], 98±6 % of WT; in [16], 106±6 % of WT; in test [17] (Construct 4 SSTR4, mean ± SEM), 106±5 % of WT; in [18], 64±7 % of WT. The Span in [19] was 88±5 % of WT; in [20] it was 92±5 % of WT. In addition, the “pKi ± SEM” value in [2] (competition with 125I-SST-14) was 9.21 ± 0.14; in test [7] (competition with 125I-SST-14), 9.47. The “pIC50 ± SEM” value in [2] (at least three independent experiments) is listed as 9.21±0.14; in test [5] it was 8.93±0.38; in test [7], 9.47±0.25; in test [10] it was 9.08±0.16. For the same compound, the “pEC50 ± SEM” value in [11] was determined as 9.12±0.19; in test [12] (HEK293F, at least three independent experiments), 9.73±0.08; in test [15], 9.57±0.17; in [16] it was 6.71±0.08; in test [17] (Construct 4 SSTR4, mean ± SEM), 10.46±0.13; in [18], 7.02±019. The “pEC50 ± SEM” value was 10.23±0.14 in [19] and 9.85±0.14 in test [20]. The compound also returned an EC50 in test [17] (Construct 4 SSTR4 (V264F, C-terminal truncation)) of 0.03 nM. The pain relief entry in [21] was “mediates pain relief”.
Consider `C[C@@H](c1c[nH]c2ccccc12)[C@@H](NC(=O)N1CCC(n2c(=O)[nH]c3ccccc32)CC1)C(=O)N[C@@H](CCCCN)C(=O)OC(C)(C)C` [L-054,522], for which, in [22], the “effect on growth hormone and glucagon releases” value was “inhibitory effect on growth hormone and glucagon releases”.
